# Test results published in patent publication US5225528A, “Cyclic hexapeptide oxytocin antagonists” (priority 1990, dated 1993).
# Numbered stars: 1 amine (or outer) side, 2 acyl side, 3 side chain; on linkers, the order of the positions; unused ones are H or OH. Square brackets hold non-standard residues; d marks the D form. Peptide text beside a SMILES is read from it. * marks the point of attachment. d1Nal = N[C@H](Cc1cccc2ccccc12)C(=O)O; d(aIle) = CC[C@H](C)[C@@H](N)C(=O)O; X12 = O=C([C@@H]1CCCNN1[*:1])[*:2]; Hyp = O=C(O)[C@@H]1C[C@@H](O)CN1; X6 = O=C([C@H]1CCCNN1[*:1])[*:2]; dNMeF = CN[C@H](Cc1ccccc1)C(=O)O; Cha = N[C@@H](CC1CCCCC1)C(=O)O; dCha = N[C@H](CC1CCCCC1)C(=O)O; dChg = N[C@@H](C(=O)O)C1CCCCC1; dPhg = N[C@@H](C(=O)O)c1ccccc1; Chg = N[C@H](C(=O)O)C1CCCCC1; Phg = N[C@H](C(=O)O)c1ccccc1; Pip = O=C(O)[C@@H]1CCCCN1; dPip = O=C(O)[C@H]1CCCCN1; NMeA = CN[C@@H](C)C(=O)O; dNMeA = CN[C@H](C)C(=O)O; Bn = c1ccc(C*)cc1; Acm = CC(=O)NC*
# Target: T1, uterine OT receptors (Rattus norvegicus, UniProt P70536)
# T1 construct: from tissue; host or cells: uterus of DES-treated rats, crude membranes
# T1 sequence (P70536 1-388): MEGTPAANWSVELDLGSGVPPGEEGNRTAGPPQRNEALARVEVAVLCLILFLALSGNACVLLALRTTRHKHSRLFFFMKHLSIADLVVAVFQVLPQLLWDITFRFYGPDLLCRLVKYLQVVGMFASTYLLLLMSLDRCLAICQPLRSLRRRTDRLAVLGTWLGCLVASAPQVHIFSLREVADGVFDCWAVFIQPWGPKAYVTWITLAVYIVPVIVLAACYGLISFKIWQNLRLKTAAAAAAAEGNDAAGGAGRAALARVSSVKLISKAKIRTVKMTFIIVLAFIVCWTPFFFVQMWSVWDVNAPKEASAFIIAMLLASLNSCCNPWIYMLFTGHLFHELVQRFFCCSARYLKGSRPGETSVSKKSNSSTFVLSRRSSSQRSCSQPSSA
# Experiment: [^3 H]OT binding to uterine OT receptors, crude membrane preparation of uteri from DES-treated rats
# Conditions: 1 h; @ 10 (nM); read-out: [^3 H]OT: percent inhibition of radioligand at the given concentration
# Experimental: Competition studies were conducted at equilibrium (60 minutes; 22° C.) using 1 nM [^3 H]OT in the following assay buffer: 50 mM Tris-HCl, 5 mM MgCl2, and 0.1% BSA, pH 7.4.
row,Compound,inhibition at 0.01 µM [%]
1,"CC[C@H](C)[C@@H]1NC(=O)[C@@H](Cc2cccc3ccccc23)NC(=O)[C@@H]2CCCN2C(=O)[C@@H](Cc2c[nH]cn2)NC(=O)[C@@H]2CCCCN2C(=O)[C@H]2CCCCN2C1=O [Example 11, Cyclo[D-a-naphthalalanyl-L-isoleucyl-D-pipecolyl-L-pipecolyl-D-histidyl-L-prolyl]] (cyclo(I[dPip][Pip][dH]P[d1Nal]))",39

# Same assay, conditions: rat uterus membranes, 1 nM [^3 H]OT; read-out: Receptor Binding Results IC50 (nM) [^3 H]OT
row,Compound,IC50 [nM]
1,"CC[C@H](C)[C@@H]1NC(=O)[C@@H](Cc2ccccc2)NC(=O)[C@@H]2CCCN2C(=O)[C@@H](Cc2ccccc2)NC(=O)[C@H](C)NC(=O)[C@@H](C)NC1=O [Example 51, c-[D-Phenylalanyl-L-isoleucyl-D-alanyl-L-alanyl-D-phenylalanyl-L-prolyl]] (cyclo(A[dF]P[dF]I[dA]))",> 10000
2,"CC[C@H](C)[C@@H]1NC(=O)[C@@H](Cc2ccccc2)NC(=O)[C@@H]2CCCN2C(=O)[C@@H](Cc2ccccc2)N(C)C(=O)[C@@H]2CCCN2C(=O)[C@H]2CCCN2C1=O [Example 52, c-[D-Phenylalanyl-L-isoleucyl-D-prolyl-L-prolyl-N-methyl-D-phenylalanyl-L-prolyl]] (cyclo([dNMeF]P[dF]I[dP]P))",3400
3,"CC[C@H](C)[C@@H]1NC(=O)[C@@H](Cc2ccccc2)NC(=O)[C@@H]2CCCN2C(=O)[C@@H](Cc2ccccc2)NC(=O)[C@@H]2CCCN2C(=O)[C@H]2CCCN2C1=O [Example 53, c-[D-Phenylalanyl-L-isoleucyl-D-prolyl-L-prolyl-D-phenylalanyl-L-prolyl]] (cyclo([dF]P[dF]I[dP]P))",2600
4,"CC[C@H](C)[C@@H]1NC(=O)[C@@H](Cc2ccccc2)NC(=O)[C@@H]2CCCN2C(=O)[C@@H](Cc2ccccc2)NC(=O)[C@H](C)N(C)C(=O)[C@@H](C)N(C)C1=O [Example 54, c-[D-Phenylalanyl-L-isoleucyl-N-methyl-D-alanyl-N-methyl-L-alanyl-D-phenylalanyl-L-prolyl]] (cyclo(I[dNMeA][NMeA][dF]P[dF]))",3000
5,CC[C@H](C)[C@@H]1NC(=O)[C@@H](CC2CCCCC2)NC(=O)[C@@H]2CCCN2C(=O)[C@@H](Cc2ccccc2)NC(=O)[C@@H]2CCCN2C(=O)[C@H]2CCCN2C1=O [Example 55] (cyclo([dCha]I[dP]P[dF]P)),2500
6,"O=C1N[C@@H](CC2CCCCC2)C(=O)N2CCC[C@@H]2C(=O)N2CCC[C@H]2C(=O)N[C@H](Cc2ccccc2)C(=O)N2CCC[C@H]2C(=O)N[C@@H]1Cc1ccccc1 [Example 56, c-[D-Phenylalanyl-L-cyclohexylalanyl-D-prolyl-L-prolyl-D-phenylalanyl-L-prolyl]] (cyclo([dF]P[dF][Cha][dP]P))",> 10000
7,CC[C@H](C)[C@@H]1NC(=O)[C@@H](Cc2ccccc2)NC(=O)CNC(=O)[C@@H](CCC(N)=O)NC(=O)[C@@H]2CCCN2C(=O)[C@H]2CCCN2C1=O [Example 57] (cyclo([dF]I[dP]P[dQ]G)),> 10000
8,"CC[C@H](C)[C@@H]1NC(=O)[C@@H](Cc2ccccc2)NC(=O)[C@@H]2CCCN2C(=O)[C@@H](CSCNC(C)=O)NC(=O)[C@@H]2CCCN2C(=O)[C@H]2CCCN2C1=O [Example 58, c-[D-Phenylalanyl-L-isoleucyl-D-prolyl-L-prolyl-D-cysteinyl(Acm)-L-prolyl]] (cyclo([dC](Acm)P[dF]I[dP]P))",> 10000
9,"CC[C@H](C)[C@@H]1NC(=O)[C@@H](Cc2ccccc2)NC(=O)[C@@H]2CCCN2C(=O)[C@@H](CSCc2ccccc2)NC(=O)[C@@H]2CCCN2C(=O)[C@H]2CCCN2C1=O [Example 59, c-[D-Phenylalanyl-L-isoleucyl-D-prolyl-L-prolyl-D-crsteinyl(Bzl)-L-prolyl]] (cyclo([dC](Bn)P[dF]I[dP]P))",> 1000
10,"CC[C@@H](C)[C@H]1NC(=O)[C@H](Cc2ccccc2)NC(=O)[C@H]2CCCN2C(=O)[C@H](Cc2ccccc2)NC(=O)[C@H]2CCCN2C(=O)[C@@H]2CCCN2C1=O [Example 60, c-[L-Phenylalanyl-D-isoleucyl-L-prolyl-D-prolyl-L-phenylalanyl-D-prolyl]] (cyclo(F[dI]P[dP]F[dP]))",> 10000
11,"CC[C@H](C)[C@@H]1NC(=O)[C@@H](Cc2ccccc2)NC(=O)[C@@H]2CCCN2C(=O)[C@@H]([C@H](C)OCc2ccccc2)NC(=O)[C@@H]2CCCN2C(=O)[C@H]2CCCN2C1=O [Example 61, c-[D-Phenylalanyl-L-isoleucyl-D-prolyl-L-prolyl-D-threoninyl(Bzl)-L-prolyl]] (cyclo([dT](Bn)P[dF]I[dP]P))",> 10000
12,"CC[C@H](C)[C@@H]1NC(=O)[C@@H](Cc2ccccc2)NC(=O)[C@@H]2CCCN2C(=O)[C@@H]([C@H](C)O)NC(=O)[C@@H]2CCCN2C(=O)[C@H]2CCCN2C1=O [Example 62, c-[D-Phenylalanyl-L-isoleucyl-D-prolyl-L-prolyl-D-threoninyl-L-prolyl]] (cyclo([dT]P[dF]I[dP]P))",> 1000
13,"O=C1N[C@@H](c2ccccc2)C(=O)N2CCC[C@@H]2C(=O)N2CCC[C@H]2C(=O)N[C@H](Cc2ccccc2)C(=O)N2CCC[C@H]2C(=O)N[C@@H]1Cc1ccccc1 [Example 63, c-[D-Phenylalanyl-L-phenylglycyl-D-prolyl-L-prolyl-D-phenylalanyl-L-prolyl]] (cyclo([dF]P[dF][Phg][dP]P))",> 10000
14,"O=C1N[C@H](Cc2ccccc2)C(=O)N2CCC[C@H]2C(=O)N[C@H](Cc2ccccc2)C(=O)N2CCC[C@H]2C(=O)N2CCC[C@@H]2C(=O)N2CCC[C@@H]12 [Example 64, c-[D-Phenylalanyl-L-prolyl-D-prolyl-L-prolyl-D-phenylalanyl-L-prolyl]] (cyclo([dF]P[dF]P[dP]P))",> 10000
15,CC[C@H](C)[C@@H]1NC(=O)[C@@H](Cc2ccccc2)NC(=O)[C@@H]2CCCN2C(=O)[C@@H](Cc2ccccc2)NC(=O)[C@H](C2CCCCC2)NC(=O)[C@@H](C2CCCCC2)NC1=O [Example 65] (cyclo([Chg][dF]P[dF]I[dChg])),> 10000
16,"CC[C@H](C)[C@@H]1NC(=O)[C@@H](Cc2ccccc2)NC(=O)[C@@H]2CCCN2C(=O)[C@@H](CCC(N)=O)NC(=O)[C@@H]2CCCN2C(=O)[C@H]2CCCN2C1=O [Example 68, c-[D-Phenylalanyl-L-isoleucyl-D-prolyl-L-prolyl-D-α-glutaminyl-L-prolyl]] (cyclo([dF]I[dP]P[dQ]P))",> 10000
17,"CC[C@H](C)[C@@H]1NC(=O)[C@@H](Cc2ccccc2)NC(=O)[C@@H]2CCCN2C(=O)[C@@H](Cc2ccccc2)NC(=O)[C@H](Cc2c[nH]cn2)NC(=O)[C@@H](Cc2c[nH]cn2)NC1=O [Example 69, c[D-Phenylalanyl-L-isoleucyl-D-histidinyl-L-histidinyl-D-phenylalanyl-L-prolyl]] (cyclo(H[dF]P[dF]I[dH]))",10000
18,"CC[C@H](C)[C@@H]1NC(=O)[C@@H](Cc2ccccc2)NC(=O)[C@@H]2CCCN2C(=O)[C@@H](Cc2ccccc2)NC(=O)[C@H](c2ccccc2)NC(=O)[C@@H](c2ccccc2)NC1=O [Example 70, c-[D-Phenylalanyl-L-isoleucyl-D-phenylglycinyl-L-phenylglycinyl-D-phenylalanyl-L-prolyl]] (cyclo(I[dPhg][Phg][dF]P[dF]))",> 10000
19,"CC[C@H](C)[C@@H]1NC(=O)[C@@H](Cc2ccccc2)NC(=O)[C@@H]2CCCN2C(=O)[C@@H](Cc2ccccc2)NC(=O)[C@@H]2C[C@@H](O)CN2C(=O)[C@H]2CCCN2C1=O [Example 71, c-[D-Phenylalanyl-L-isoleucyl-D-prolyl-L-trans-hydroxyprolyl-D-phenylalanyl-L-prolyl]] (cyclo([Hyp][dF]P[dF]I[dP]))",> 10000
20,"C[C@@H](OCc1ccccc1)[C@@H]1NC(=O)[C@@H](Cc2ccccc2)NC(=O)[C@@H]2CCCN2C(=O)[C@@H](Cc2ccccc2)NC(=O)[C@@H]2CCCN2C(=O)[C@H]2CCCN2C1=O [Example 72, c-[D-Phenylalanyl-L-(O-benzyl)-threoninyl-D-prolyl-L-prolyl-D-phenylalanyl-L-prolyl]] (cyclo([dF]P[dF]T(Bn)[dP]P))",> 10000
21,"C[C@@H](O)[C@@H]1NC(=O)[C@@H](Cc2ccccc2)NC(=O)[C@@H]2CCCN2C(=O)[C@@H](Cc2ccccc2)NC(=O)[C@@H]2CCCN2C(=O)[C@H]2CCCN2C1=O [Example 73, c-[D-Phenylalanyl-L-threoninyl-D-prolyl-L-prolyl-D-phenylalanyl-L-prolyl]] (cyclo([dF]P[dF]T[dP]P))",> 10000
22,CC[C@H](C)[C@@H]1NC(=O)[C@@H](Cc2ccc(O)cc2)NC(=O)[C@@H]2CCCN2C(=O)[C@@H](Cc2ccccc2)NC(=O)[C@@H]2CCCNN2C(=O)[C@H]2CCCNN2C1=O [Example 97] (cyclo([dY]I[X6][X12][dF]P)),> 10000
23,CC[C@H](C)[C@@H]1NC(=O)[C@@H](Cc2ccccc2)NC(=O)[C@@H]2CCCN2C(=O)[C@@H](Cc2ccccc2)NC(=O)[C@H](CC(N)=O)NC(=O)[C@H](CCC(N)=O)NC1=O [Example 100] (cyclo([dF]IQN[dF]P)),5080
24,CCOc1ccc(C[C@H]2NC(=O)[C@@H]3CCCN3C(=O)[C@@H](Cc3ccccc3)NC(=O)[C@H](CC(N)=O)NC(=O)[C@@H](CCC(N)=O)NC(=O)[C@@H]([C@@H](C)CC)NC2=O)cc1 [Example 101] (cyclo(N[dF]P[dY](Et)[d(aIle)][dQ])),> 10000
